One assay addresses T1, 1D4-tagged TRPV2 QM (Rattus norvegicus, UniProt Q9WUD2, F472S/L507M/L510T/Q530E).
T1 construct: made in house; host or cells: S. cerevisiae BJ5457, isolated membranes
T1 sequence (Q9WUD2 1-761 F472S/L507M/L510T/Q530E): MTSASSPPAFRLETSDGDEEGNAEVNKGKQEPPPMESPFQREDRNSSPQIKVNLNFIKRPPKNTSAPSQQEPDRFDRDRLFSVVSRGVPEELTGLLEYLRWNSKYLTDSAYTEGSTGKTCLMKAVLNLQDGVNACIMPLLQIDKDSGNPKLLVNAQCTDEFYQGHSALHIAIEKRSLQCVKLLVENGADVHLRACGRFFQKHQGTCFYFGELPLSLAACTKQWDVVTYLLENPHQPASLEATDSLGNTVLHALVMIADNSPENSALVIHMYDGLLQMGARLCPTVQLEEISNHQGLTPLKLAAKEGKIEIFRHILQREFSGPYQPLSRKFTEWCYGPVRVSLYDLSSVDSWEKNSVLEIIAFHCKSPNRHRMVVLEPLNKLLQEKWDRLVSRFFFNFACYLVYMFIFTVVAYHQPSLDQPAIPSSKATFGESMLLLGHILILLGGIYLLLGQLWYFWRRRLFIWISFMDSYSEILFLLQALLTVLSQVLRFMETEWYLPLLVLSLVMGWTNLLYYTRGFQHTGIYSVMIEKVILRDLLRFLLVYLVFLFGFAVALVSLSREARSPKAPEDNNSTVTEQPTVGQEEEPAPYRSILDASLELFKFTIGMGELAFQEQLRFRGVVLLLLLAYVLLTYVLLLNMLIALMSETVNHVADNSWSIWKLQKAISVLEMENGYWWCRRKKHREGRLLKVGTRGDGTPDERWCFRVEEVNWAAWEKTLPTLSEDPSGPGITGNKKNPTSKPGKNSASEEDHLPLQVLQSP
Description: 3H-RTx binding to yeast membranes containing 1D4-tagged TRPV2 QM. The text has this: To examine the strength of RTx binding to the TRPV2 channel, we undertook binding assays after expressing 1D4-tagged TRPV2 and TRPV2 QM in S. cerevisiae and isolating yeast membranes, similar to the experiments described above with TRPV1 (Figure 2). […] To examine the relative importance of the four residues for mediating RTx sensitivity in the TRPV2 QM, we constructed triple mutants and evaluated their sensitivity to RTx electrophysiologically.
The full-length TRPV1 and TRPV2 channels with 1D4 affinity tags ([…]) on their C-termini were cloned into the YEpHIS vector and expressed in the BJ5457 strain of S. cerevisiae using the strong constitutively active PMA1 promoter, as previously described ([Moiseenkova-Bell et al., 2008]). After 48 hr of expression at 30°C in YPD media, cells were harvested by centrifugation and re-suspended in PBS buffer, supplemented with complete protease inhibitor cocktail (Roche, Indianapolis, IN) and 4-amidinophenylmethanesulfonyl fluoride hydrochloride (APMSF) (Sigma-Aldrich, St. Louis, MO). Cells were broken by passing through an Avestin homogenizer at the pressure of 35 kpsi, cell lysate was cleared by centrifugation at 8,000 g for 15 min and membranes were isolated by ultracentrifugation at 190,000 g for 1 hr. […]
S. cerevisiae cells overexpressing TRPV1 constructs to be used in ligand binding assays on intact cells (Figure 1E,F) were grown as for small scale expression trials. 24 hr after protein induction cells were spun down at 4000g, the supernatant was removed and the pellet resuspended in 1x PBS, normalizing OD600 to 75 for each sample, and aliquoted for storage at -80°C. ^3H-RTx binding assays on cells were performed at 37°C as previously described ([Feng et al., 2015]), but where non-specific binding of RTx was measured using cells expressing GFP alone. […] Data for binding of RTx to membranes was corrected for non-specific binding, determined using either excess non-radioactive ligand or heat inactivation of the protein, as previously described ([Feng et al., 2015]). […]

Assay [1] concerns TRPV2 triple mutants containing the F472S mutation. Description: Two-electrode voltage-clamp in Xenopus oocytes, TRPV2 triple mutants containing F472S. Type of assay: cell-based, rat. As to conditions: 100 nM RTx, +60 mV, normalized to 4 mM 2-APB. From the text:
To further investigate the putative vanilloid binding pocket in TRPV1, we inspected the cryo-EM structure of TRPV1, looking for residues that are located nearby to the putative RTx density (Figure 1B; regions/residues highlighted in yellow) and that differ between TRPV1 and TRPV2 channels (Figure 3—figure supplement 1; regions highlighted in magenta). […] To quantify the contribution of each of these residues to TRPV1 channel activation by RTx under our experimental conditions, we mutated each to the corresponding residue in TRPV2. We then expressed each construct in oocytes and used the two electrode voltage-clamp technique to study activation by RTx and by the non-specific TRPV channel activator 2-APB. We recorded time courses for channel activation by each agonist while stepping the membrane potential from −60 to +60 mV every 3 s from a holding potential of 0 mV using an external recording solution containing 100 mM KCl (internal K^+ concentration in a healthy oocyte is 100 mM) (Figure 3A, left). We also recorded current-voltage (I-V) relations by stepping over a wider range of voltages in the absence and presence of activators, or in the presence of ruthenium red (RR), a non-specific inhibitor of TRP channels (Figure 3A, right). […]

As to `C=C(C)[C@]12C[C@@H](C)[C@@]34O[C@](Cc5ccccc5)(O[C@@H]1[C@@H]3C=C(COC(=O)Cc1ccc(O)c(OC)c1)C[C@]1(O)C(=O)C(C)=C[C@@H]41)O2` [RTx, resiniferatoxin], the “affinity of RTx for TRPV2 QM lower compared to TRPV1” value at 1D4-tagged TRPV2 QM is “about 30 fold”. Further, the “Hill slope (nH)” value at 1D4-tagged TRPV2 QM (37°C) came to 1.7. The Kd (in general, the concentration at which binding is half-saturated) at 1D4-tagged TRPV2 QM (37°C, read-out: Kd of 3H-RTx binding (Hill fit)) came to 0.018 µM. Also, the “channel activation by RTx” value in assay [1] is “sensitive to RTx”.

The values are drawn from publication PMC4907692, “Engineering vanilloid-sensitivity into the rat TRPV2 channel” (eLife, 2016).
